One compound from article PMC8079033, “Design, synthesis, anticancer evaluation, and molecular modelling studies of novel tolmetin derivatives as potential VEGFR-2 inhibitors and apoptosis inducers” (Journal of Enzyme Inhibition and Medicinal Chemistry, 2021) can be followed below.

Format in all cases: cell-based, human
The subject of assay [1] is HUVECs. Description: Wound healing assay (CytoSelect 24-well). As to conditions: 72 h, 5b 2.4 µM, sunitinib 3.2 µM, control 97.03 ± 5.47. Here is the method:
Wound healing assay of compound 5b was evaluated using CytoSelect™ 24-Well Wound Healing Assay kit Catalog # CBA-120 according to manufacturer’s instructions. In brief, the 24-well plate wound healing inserts were allowed to warm up at room temperature for 10 minutes, then to each well, 500 µl of human umbilical vascular endothelial cells (HUVECs) suspension (1.0 × 10^6) in media containing 10% fetal bovine serum (FBS) was added. Cells were kept in a cell culture incubator until a monolayer form. Carefully the insert was removed from the well. The media were slowly aspirated and discarded from the wells. The wells were washed with media to remove dead cells and debris. Finally, the media were added to wells to keep cells hydrated, then wells were visualized under a light microscope. […] The percent closure of the cells into the wound field was measured.
One of the hallmarks of angiogenesis is cell migration, which happens in the earlier stages of the angiogenic cascade. A wound-healing assay was performed to investigate in vitro anti-angiogenic property of compound 5b.

Assay [2] concerns HCT-15 cells. Description: Cell cycle analysis by flow cytometry (PI). The protocol:
After treatment, the cells were washed twice with ice-cold phosphate buffer saline (PBS), collected by centrifugation, and fixed in ice-cold 70% (v/v) ethanol, washed with PBS, resuspended with 0.1 mg/ml RNase, stained with […] propidium iodide (PI), and analysed by flow cytometry using FACS Calibur (Becton Dickinson)[45]. The cell cycle distributions were calculated using Cell- Quest software (Becton Dickinson).
Anticancer agents exert their cytotoxic action by aborting cellular proliferation at certain checkpoints. These checkpoints are distinguishable phases in the cell cycle, whose suppression results in the termination of the cell proliferation. Cell cycle analysis employs flow cytometry to distinguish cells within the different cell cycle phases. […] Moreover, marked augmentation in the proportion of cells in the G0-G1 phase by 1.32-fold, and in the Sub-G1 phase by 18.7-fold, in comparison to the control (DMSO).
For orientation: A flow cytometer gives signals particle by particle.

In assay [3] the test system is HCT-15 cells. Description: Annexin V-FITC/PI apoptosis assay. Here is the method:
Apoptosis was determined by staining the cells with Annexin V fluorescein isothiocyanate (FITC) and counterstaining with PI using the Annexin V-FITC/PI apoptosis detection kit (BD Biosciences, San Diego, CA) according to the manufacturer’s instructions. […] The cells then were collected by trypsinization and 0.5 × 10^6 cells were washed twice with PBS and stained with 5 µl Annexin V-FITC and 5 µl PI in 1 × binding buffer for 15 min at room temperature in the dark. Analyses were performed using FACS Calibur flow cytometer (BD Biosciences, San Jose, CA).
This clearly verifies that, cell death resulting from the antiproliferative action of the target tolmetin derivative 5b was attributable to physiological apoptosis.

Assay [4] deals with caspase-3. Description: Caspase-3 (active) ELISA in HCT-15 cells. Here is the method: The level of the apoptotic marker caspase-3 was assessed using Human Caspase-3 (active) ELISA Kit Catalog # KHO1091. The procedure of the used kit was done according to the manufacturer’s instructions. Allow all reagents to reach room temperature before use. Gently mix all liquid reagents prior to use. Add 100 µl of the standard diluent buffer to the zero standard wells. Add 100 µl of standards and controls or diluted samples to the appropriate microtiter wells. Incubate for 2 h at room temperature. […] Incubate for 1 h at room temperature. Add 100 µl anti-rabbit IgG HRP working solution to each well. Prepare the working dilution and incubate for 30 min at room temperature. Add 100 µl of stabilised chromogen to each well. The liquid in the wells will begin to turn blue. Incubate for 30 min at room temperature and in the dark. Add 100 µl of stop solution to each well. The solution in the wells should change from blue to yellow. Read the absorbance of each well at 450 nm. Read the plate within 2 h after adding the stop solution. Use a curve fitting software to generate the standard curve. Read the concentrations for unknown samples and controls from the standard curve.
(§1) The activation of caspases as caspase-3, caspase-8, and caspase-9 is responsible for apoptosis, particularly caspase-3 which is an effector caspase that has an important role in apoptosis. It is activated by one of the initiator caspases which results in the activation of certain enzymes responsible for the fragmentation of DNA[53]. Caspase-8 and -9 are initiator caspases that are responsible for caspase-3 activation.
Background: In an ELISA, binding on a coated surface is turned into a signal by an enzyme label.

Assay [5] concerns caspase-8. Description: Caspase-8 ELISA in HCT-15 cells. The protocol: (§2) To measure caspase-8 and caspase-9 levels, DRG® Caspase-8 (human) (EIA-4863) ELISA and DRG® Caspase-9 (human) (EIA-4860) ELISA kits were used. Briefly, prepare cell extracts after induction of apoptosis. Resuspend the extracts in lysis buffer, incubate 60 min at room temperature, and centrifuge for 15 min. Wash the microwell strips with 400 µl wash buffer. Add 100 µl of sample diluent in duplicate to all standard wells. Add 100 µl of sample diluent in duplicate to the blank wells. Add 50 µl of sample diluent to the sample wells. Add 50 µl of each sample in duplicate to the sample wells. Add 50 µl of detection antibody to all wells and incubate at room temperature for 2 h. Add 100 µl of diluted anti-rabbit-IgG-HRP to all wells, including the blank wells. Pipette 100 µl of (3,3′,5,5′-Tetramethylbenzidine) TMB substrate solution to all wells and incubate at room temperature for about 15 min. Stop the enzyme reaction by pipetting 100 µl of stop solution into each well. Read absorbance of each microwell on a spectro-photometer using 450 nm. Determine the absorbance of both the samples and the standards.
as §1

The test system of assay [6] is caspase-9. Description: Caspase-9 ELISA in HCT-15 cells. Here is the method: as §2, §1

Each structure is given as a SMILES string.

In assay [1], `Cc1ccc(C(=O)c2ccc(CC(=O)NN=Cc3cccc(O)c3O)n2C)cc1` [Compound 5b, N′-(2,3-Dihydroxybenzylidene)-2–(1-methyl-5–(4-methylbenzoyl)-1H-pyrrol-2-yl) acetohydrazide] showed a Wound closure percentage of 51.85 ± 2.92%. In addition, in assay [2] (6.62 µM, vs control (DMSO)), the “augmentation in the proportion of cells in the G0-G1 phase” value is reported as 1.32 fold, the “decline in the cell population at the G2/M phase” value stood at 65.61% and the “decline in the cell population at the S phase” value is 16.88%. The “%Pre-G1” value in assay [2] (IC50 concentration (6.62 µM), 24 h, control 1.46) is 37.29%. Further, the “%G2/M” value in assay [2] (IC50 concentration (6.62 µM), 24 h, control 6.95) stood at 2.39%. The “%G0–G1” value in assay [2] (IC50 concentration (6.62 µM), 24 h, control 41.69) was found to be 54.92%. In assay [2] (IC50 concentration (6.62 µM), 24 h, control 51.36), the “%S” value was 42.69%. The “Apoptosis Late” value in assay [3] (IC50 concentration, 24 h, control 0.13) was found to be 22.12%. Besides, the “Apoptosis Early” value in assay [3] (IC50 concentration, 24 h, control 0.34) is reported as 2.66%. Moreover, the “Apoptosis Total” value in assay [3] (IC50 concentration, 24 h, control 0.47) was 24.78%. This compound also yielded a Necrosis in assay [3] (IC50 concentration, 24 h, control 0.99) of 12.51%. Besides, the “increase in the total apoptosis percentage” value in assay [3] (vs control (DMSO)) worked out at 52.72 fold. In assay [4] (mean ± SD of three experiments, control 0.073 ± 0.01), this compound registered a Caspase-3 of 0.570 ± 0.01 ng/mL. For the same compound, the “increase in the level of caspase-3” value in assay [4] (vs control) came to 7.808 fold. In addition, in assay [5] (mean ± SD of three experiments, control 0.377 ± 0.03), the Caspase-8 stood at 0.704 ± 0.06 ng/mL. Also, the “increase in the level of caspase-8” value in assay [5] (vs control) came to 1.867 fold. The same compound yielded a Caspase-9 in assay [6] (mean ± SD of three experiments, control 3.225 ± 0.44) of 24.58 ± 0.82 ng/mL. Also, the “increase in the level of caspase-9” value in assay [6] (vs control) is reported as 7.622 fold.
